Inhibition and Activity data for four compounds are collected here from ChEMBL document CHEMBL4739711, “Method of inhibiting DYRK1B” (2020).

The subject of data set [1] is PANC-1. Description: Inhibition of colony formation in human PANC-1 cells at 0.5 uM. It counts as functional, cell-based.
Data set [2] relates to PANC-1. Briefly: Toxicity in human PANC-1 cells assessed as effect on cell viability at 0.5 uM. It counts as cell-based. Particulars: panc-1, 0.5 µM.
The target in data set [3] is Dual specificity tyrosine-phosphorylation-regulated kinase 1B (Homo sapiens) (UniProt Q9Y463). Briefly: Inhibition of DYRK1B in SAG stimulated human Daoy cells assessed as prevention of Hedgehog signaling by measuring reduction of GLI expression at 1 to 5 uM by Western blot analysis. It counts as tissue-based. Particulars: dose 1-5 µM. For orientation: In western blotting, separated proteins are transferred to a membrane and probed.
Chain of Dual specificity tyrosine-phosphorylation-regulated kinase 1B (Homo sapiens) (Q9Y463 whole entry, looked up): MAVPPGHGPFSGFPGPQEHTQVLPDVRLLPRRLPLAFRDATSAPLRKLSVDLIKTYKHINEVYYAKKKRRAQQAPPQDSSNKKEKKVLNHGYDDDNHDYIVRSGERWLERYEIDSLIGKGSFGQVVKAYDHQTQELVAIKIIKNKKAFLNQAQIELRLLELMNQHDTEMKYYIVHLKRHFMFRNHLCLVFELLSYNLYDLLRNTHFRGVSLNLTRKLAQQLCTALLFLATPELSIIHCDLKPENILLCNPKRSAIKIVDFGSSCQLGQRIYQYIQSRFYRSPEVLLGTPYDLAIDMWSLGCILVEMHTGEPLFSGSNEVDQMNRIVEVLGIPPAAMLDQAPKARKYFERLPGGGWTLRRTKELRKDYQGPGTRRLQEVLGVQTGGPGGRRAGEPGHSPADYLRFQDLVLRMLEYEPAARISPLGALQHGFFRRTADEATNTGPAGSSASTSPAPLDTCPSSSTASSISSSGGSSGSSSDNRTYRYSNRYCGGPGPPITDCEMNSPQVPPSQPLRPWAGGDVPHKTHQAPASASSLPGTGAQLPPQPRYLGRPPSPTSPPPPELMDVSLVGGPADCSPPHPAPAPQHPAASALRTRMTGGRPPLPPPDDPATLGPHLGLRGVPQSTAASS

In data set [4] the target is T1, Zinc finger protein GLI1 (Homo sapiens) (UniProt P08151).
T1 sequence (whole entry): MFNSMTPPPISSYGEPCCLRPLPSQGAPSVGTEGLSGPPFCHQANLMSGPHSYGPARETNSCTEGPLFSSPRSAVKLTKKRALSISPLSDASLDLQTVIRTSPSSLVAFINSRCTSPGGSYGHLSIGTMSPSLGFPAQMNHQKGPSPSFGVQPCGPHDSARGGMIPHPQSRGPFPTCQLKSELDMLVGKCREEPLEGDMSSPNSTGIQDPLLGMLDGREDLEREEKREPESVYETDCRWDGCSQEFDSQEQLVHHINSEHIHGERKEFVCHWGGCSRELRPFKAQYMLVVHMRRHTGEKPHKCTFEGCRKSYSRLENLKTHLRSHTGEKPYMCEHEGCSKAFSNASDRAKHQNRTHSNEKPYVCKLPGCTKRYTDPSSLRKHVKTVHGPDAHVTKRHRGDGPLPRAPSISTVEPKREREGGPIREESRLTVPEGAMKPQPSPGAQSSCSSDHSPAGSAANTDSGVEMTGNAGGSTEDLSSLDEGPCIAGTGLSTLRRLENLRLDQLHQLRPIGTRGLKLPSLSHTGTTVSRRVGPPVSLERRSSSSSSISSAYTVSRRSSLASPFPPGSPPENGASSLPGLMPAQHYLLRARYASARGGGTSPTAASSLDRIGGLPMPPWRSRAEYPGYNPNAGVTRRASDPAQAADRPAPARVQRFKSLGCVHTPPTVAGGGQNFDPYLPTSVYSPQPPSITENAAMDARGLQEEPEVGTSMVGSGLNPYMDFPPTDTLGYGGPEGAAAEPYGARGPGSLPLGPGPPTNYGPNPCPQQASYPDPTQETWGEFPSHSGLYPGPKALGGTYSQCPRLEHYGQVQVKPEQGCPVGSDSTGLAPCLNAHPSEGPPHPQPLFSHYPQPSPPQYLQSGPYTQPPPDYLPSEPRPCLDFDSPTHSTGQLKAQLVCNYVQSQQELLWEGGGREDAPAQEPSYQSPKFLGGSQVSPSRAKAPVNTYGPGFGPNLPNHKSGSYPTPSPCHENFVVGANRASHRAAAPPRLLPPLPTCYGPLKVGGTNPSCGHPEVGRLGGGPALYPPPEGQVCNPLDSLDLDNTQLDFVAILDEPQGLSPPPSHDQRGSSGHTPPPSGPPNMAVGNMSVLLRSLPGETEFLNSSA
Briefly: Inhibition of GLI in SAG stimulated human Daoy cells assessed as prevention of Hedgehog signaling by measuring reduction of GLI expression at 20 uM in presence of siRNA for SUFU by Western blot analysis. It counts as tissue-based.

The target of data set [5] is T1, Zinc finger protein GLI1 (Homo sapiens). Description: Inhibition of GLI in SAG stimulated human Daoy cells assessed as prevention of Hedgehog signaling by measuring reduction of PTCH1 expression at 20 uM in presence of siRNA for SUFU by Western blot analysis. The data set is classed as tissue-based.
The test system of data set [6] is PANC-1. Description: Inhibition of colony formation in human PANC-1 cells at 10 to 25 uM. The data set is classed as functional, cell-based. Particulars: dose 10-25 µM.
For data set [7], the target named is Dual specificity tyrosine-phosphorylation-regulated kinase 1B (Homo sapiens) (UniProt Q9Y463). Description: Inhibition of DYRK1B in human PANC-1 cell assessed as prevention of Hedgehog signaling by measuring reduction of GLI expression at 10 to 25 uM by Western blot analysis. The data set is classed as tissue-based. Particulars: dose 10-25 µM.
Data set [8] deals with PANC-1. Description: Toxicity in human PANC-1 cells assessed as effect on cell viability at 10 to 25 uM. It counts as cell-based. Particulars: panc-1, 25 µM, dose 10-25 µM.
For data set [9], the target named is Dual specificity tyrosine-phosphorylation-regulated kinase 1B (Homo sapiens) (UniProt Q9Y463). Description: Inhibition of DYRK1B in human A673 cells assessed as prevention of Hedgehog signaling by measuring reduction of GLI expression at 10 to 25 uM by Western blot analysis. It counts as cell-based. Particulars: dose 10-25 µM.
The target is the same in data set [10]. Description: Inhibition of DYRK1B in SAG stimulated human Daoy cells assessed as prevention of Hedgehog signaling by measuring reduction of GLI expression at 10 to 25 uM by Western blot analysis. The data set is classed as tissue-based. Particulars: dose 10-25 µM.
In data set [11] the target is Protein smoothened (Mus musculus) (UniProt P56726). Briefly: Inhibition of SMO in SAG stimulated mouse BCC cells assessed as prevention of Hedgehog signaling by measuring reduction of GLI expression at 10 to 25 uM by Western blot analysis. The data set is classed as cell-based. Particulars: dose 10-25 µM.
Chain of Protein smoothened (Mus musculus) (P56726 whole entry): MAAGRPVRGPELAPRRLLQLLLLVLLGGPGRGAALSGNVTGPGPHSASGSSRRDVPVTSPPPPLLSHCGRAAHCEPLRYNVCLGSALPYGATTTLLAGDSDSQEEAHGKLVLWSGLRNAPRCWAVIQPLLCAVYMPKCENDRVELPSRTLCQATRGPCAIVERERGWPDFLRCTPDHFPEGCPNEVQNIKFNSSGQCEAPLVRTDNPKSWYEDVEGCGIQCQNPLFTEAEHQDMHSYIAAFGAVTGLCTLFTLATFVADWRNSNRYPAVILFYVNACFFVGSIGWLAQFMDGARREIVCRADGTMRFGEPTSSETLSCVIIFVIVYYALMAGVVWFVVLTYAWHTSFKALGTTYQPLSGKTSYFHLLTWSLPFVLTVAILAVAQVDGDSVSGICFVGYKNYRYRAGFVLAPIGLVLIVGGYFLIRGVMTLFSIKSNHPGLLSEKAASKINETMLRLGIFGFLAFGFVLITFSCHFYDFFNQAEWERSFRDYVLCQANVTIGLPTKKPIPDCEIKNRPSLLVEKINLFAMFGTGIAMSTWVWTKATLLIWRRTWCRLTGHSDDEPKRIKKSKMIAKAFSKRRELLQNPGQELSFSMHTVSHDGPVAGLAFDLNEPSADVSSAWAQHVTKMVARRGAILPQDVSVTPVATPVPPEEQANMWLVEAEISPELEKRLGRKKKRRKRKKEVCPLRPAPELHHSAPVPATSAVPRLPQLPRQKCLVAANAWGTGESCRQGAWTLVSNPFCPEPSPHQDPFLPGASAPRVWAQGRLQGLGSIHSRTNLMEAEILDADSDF
The target in data set [12] is Dual specificity tyrosine-phosphorylation-regulated kinase 1B (Homo sapiens) (UniProt Q9Y463). Description: Inhibition of DYRK1B in SAG stimulated human Daoy cells assessed as prevention of Hedgehog signaling by measuring reduction of PTCH1 expression at 10 to 25 uM by Western blot analysis. Particulars: dose 10-25 µM. It counts as tissue-based.

The source made the active and inactive calls. The rule behind the calls is not given here.

Regarding `CS(=O)(=O)c1ccc(C(=O)Nc2ccc(Cl)c(-c3ccccn3)c2)c(Cl)c1` [VISMODEGIB], the inhibition entry in the data set on PANC-1 [1] was “inactive”. For the same compound, in the data set with PANC-1 [2], the Activity entry is recorded as “Non-Toxic”.
Regarding `FC(F)(F)c1ccc2[nH]c(Nc3ncccn3)nc2c1`, the inhibition result in data set [3] is “Active”.
Consider `CN(C)c1ccccc1CN1CCCN(Cc2ccccc2N(C)C)C1c1ccncc1`, for which the inhibition result in data set [4] and in data set [5] was “Active” each time.
For `COc1ccc2c(c1)[nH]c1c(C)nccc12` [HARMINE], the inhibition entry (with PANC-1 [6]; in [7]; in data set [9]; in data set [10]; in data set [11]; in data set [12]) was “Active” in each case. Also, the Activity entry with PANC-1 [8] is on record as “Non-Toxic”.
